Tests used:
Assay type in all cases: cell-based
GST-π = experiment: Western blot analysis of GST-π knockdown; details: M7609 cells
Protocol: On the day before transfection, M7609 cells were plated on a 100 mm plastic tissue culture dish using 10% FBS-containing RPMI-1640 medium containing no antibiotic so as to give 1×10^6 cells/10 mL. 600 pmol of GST-π siRNA (SEQ ID No: 1: […], siRNA ID#2385, Ambion) was added to 1 mL of Opti-MEM I Reduced Serum Medium (GIBCO) and mixed gently. Subsequently, 35 μL of Lipofectamine RNAiMAX (Invitrogen) was diluted in 1 mL of Opti-MEM I Reduced Serum Medium and mixed gently. The diluted GST-π siRNA and the diluted Lipofectamine RNAiMAX were combined and gently mixed, and then incubated at room temperature for 10 min. During this time, the medium was replaced with 10 mL of Opti-MEM I Reduced Serum Medium. After the 10 min. incubation, the complex between GST-π siRNA and Lipofectamine RNAiMAX was added to the cells and incubated at 37° C. under an atmosphere containing 5% CO2. After 5 hours incubation, it was replaced with 10 mL of 10% FBS-containing RPMI-1640 medium containing no antibiotic. […] On the 1st, 2nd, 3rd, and 4th days after transfection with GST-π siRNA, the number of cells was counted, and knockdown of GST-π was examined. Knockdown of GST-π was analyzed by a western blot method as described below.
Western blot analysis of GST-π knockdown was carried out using cells harvested at above-mentioned each point of time after transfection with GST-π siRNA. […] The cell extract thus obtained was subjected to quantitative protein analysis using a Micro BCA Protein Assay Kit (Thermo SCIENTIFIC) (GST-π siRNA transfectant: 4.35 μg/μL, Scramble siRNA transfectant: 4.56 μg/μL). […] A reaction with a chemiluminescent substrate was then carried out at room temperature for 1 min., and then this chemiluminescence was detected using an X-ray film. Washing between operations was carried out three times by shaking for 5 min using PBS-T. Furthermore, after transfection with siRNA, plating on a 60 mm plastic tissue culture dish was carried out to give 1.0×10^5 cells/5 mL, and the total cell count in the dish was measured using a hemocytometer up to the 4th day.

[1] = tested on: K-RAS mutation-positive colon carcinoma cell line M7609; experiment: Total cell count after siRNA transfection (hemocytometer); details: after culturing for 4 days, versus no suppression (FIG. 1b)
Protocol: K-RAS mutation-positive colon carcinoma cell line M7609 was cultured in 10% fetal bovine serum (FBS)-containing RPMI-1640 medium at 37° C. under an atmosphere containing 5% CO2. Furthermore, 100 U/mL penicillin and 100 μg/mL streptomycin were added as antibiotics to the medium.
On the day before transfection, M7609 cells were plated on a 100 mm plastic tissue culture dish using 10% FBS-containing RPMI-1640 medium containing no antibiotic so as to give 1×10^6 cells/10 mL. 600 pmol of GST-π siRNA (SEQ ID No: 1: […], siRNA ID#2385, Ambion) was added to 1 mL of Opti-MEM I Reduced Serum Medium (GIBCO) and mixed gently. […] On the 1st, 2nd, 3rd, and 4th days after transfection with GST-π siRNA, the number of cells was counted, and knockdown of GST-π was examined. Knockdown of GST-π was analyzed by a western blot method as described below.
Western blot analysis of GST-π knockdown was carried out using cells harvested at above-mentioned each point of time after transfection with GST-π siRNA. […] The cell extract thus obtained was subjected to quantitative protein analysis using a Micro BCA Protein Assay Kit (Thermo SCIENTIFIC) (GST-π siRNA transfectant: 4.35 μg/μL, Scramble siRNA transfectant: 4.56 μg/μL). […] A reaction with a chemiluminescent substrate was then carried out at room temperature for 1 min., and then this chemiluminescence was detected using an X-ray film. […]

M7609 cells [2] = experiment: Autophagy induction by LC3 immunofluorescence staining; details: 1 to 4 days after transfection (FIG. 10)
Protocol: Induction of autophagy by GST-π knockdown was analyzed by immunofluorescence staining with LC3, which is an autophagy-specific marker protein. GST-π knockdown cells obtained by the procedure of Example 1 (2) were plated on a cover slip placed in a 35 mm plastic tissue culture dish so as to give 1×10^5 cells/2 mL. After the medium was aspirated, 4% paraformaldehyde in PBS was added, and incubation was carried out at room temperature for 10 min., thus fixing the cells. Permeabilization of the cells was carried out using 0.5% Triton X-100 in PBS on ice for 5 min. After washing with cold PBS for 10 min., a reaction with anti-LC3B antibody (Invitrogen) diluted with 1% BSA containing PBS was carried out within a humidity chamber at 37° C. for 1 hour. A secondary antibody reaction was carried out using Alexa Fluor488-labeled rabbit antibody (Invitrogen) at 37° C. for 1 hour. Mounting on a slide glass was carried out using Prolong Gold antifade reagent with DAPI, and incubation was carried out at 4° C. for 16 hours. Washing after the antibody reaction was carried out three times using PBS at 37° C. for 5 min. Autophagy-positive cells at the time of examination with a fluorescence microscope were defined as cells having a spot-like LC3 signal present in the cytoplasm.

M7609 cells [3] = experiment: Autophagy induction by electron microscope examination; details: 2 days after transfection, electron microscope (FIG. 7)
Protocol: On the 1st day after siRNA transfection in Example 1 (2), the cells were plated on an 8-well culture slide for tissue culture so as to give 0.4×10^5 cells/0.5 mL. Fixation was carried out using 2.5% glutaraldehyde in 0.1 M cacodylic acid buffer (pH 7.4) for hour, and after rinsing with 0.1 M cacodylic acid buffer post-fixation was carried out using 1% OsO4 and 1.5% potassium ferrocyanide for 2 hours. After dehydration was carried out three times with ethanol for 10 min., embedding in an epoxy resin (TAAB Laboratories Equipment) was carried out. An ultrathin section was prepared using a diamond knife, electron staining was carried out using uranyl acetate and lead citrate, and the section was examined using an electron microscope (Hitachi Transmission Electron Microscope H-7500, Hitachi High-Technologies Corporation).

GST-π siRNA: GST-π siRNA (SEQ ID No: 1: GGGAGGCAAGACCUUCAUUTT, siRNA ID#2385, Ambion) (chemistry not given here)
expression of GST-π (GST-π; 4 days after transfection (FIG. 1b)): still stably suppressed
expression of GST-π (GST-π; siRNA transfection, western blot (FIG. 1a)): suppressed
number of cells [1]: markedly less
proportion of autophagy-positive cells (spot-like LC3 signal per 500 cells) (M7609 cells [2]): increased rapidly after treatment, peaked on 2nd day, and then decreased
autophagosome formation (M7609 cells [3]): autophagosome was formed
